Reference: paper PMC3652196, “Pharmacometrics of 3-Methoxypterostilbene: A Component of Traditional Chinese Medicinal Plants” (Evidence-based Complementary and Alternative Medicine : eCAM, 2013)
Entries after “also recorded” stand apart in the source; their conditions may differ.

How the values were obtained:
[1] = system: human leukemia-derived HL60 cells; settings: cited from earlier work
crown-gall = system: crown-gall; set-up: method as in PMID 3598597; settings: cited from earlier work
[2] = biological target: T1, α-amylase from porcine pancreas type VI-B (Sus scrofa, UniProt P00690); assay: α-Amylase inhibition colorimetric assay (BPNPG7, amylase HR reagent); format: biochemical
T1 construct: α-amylase from porcine pancreas type VI-B; purchased Sigma-Aldrich; host or cells: porcine pancreas
T1 sequence (P00690 16-511): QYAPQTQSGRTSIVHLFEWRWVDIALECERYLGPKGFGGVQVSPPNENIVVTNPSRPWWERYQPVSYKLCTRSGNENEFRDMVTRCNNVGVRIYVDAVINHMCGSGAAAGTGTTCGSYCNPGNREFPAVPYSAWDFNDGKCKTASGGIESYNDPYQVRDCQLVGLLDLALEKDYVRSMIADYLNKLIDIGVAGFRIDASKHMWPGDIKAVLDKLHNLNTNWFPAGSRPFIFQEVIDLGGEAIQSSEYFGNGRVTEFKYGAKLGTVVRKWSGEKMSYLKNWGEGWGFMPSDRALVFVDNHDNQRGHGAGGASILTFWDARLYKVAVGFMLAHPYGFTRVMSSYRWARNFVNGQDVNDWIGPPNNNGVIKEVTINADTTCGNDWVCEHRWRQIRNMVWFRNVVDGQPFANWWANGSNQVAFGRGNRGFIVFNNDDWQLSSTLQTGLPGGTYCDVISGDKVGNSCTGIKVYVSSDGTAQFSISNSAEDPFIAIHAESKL

[3] = computer model; cited from earlier work
COX-1 = biological target: T2, COX-1 (Ovis aries, UniProt P05979); assay: COX inhibitor screening assay (EIA of prostaglandins), COX-1; format: biochemical
T2 construct: purchased Cayman Chemical 560131
T2 sequence (P05979 25-600): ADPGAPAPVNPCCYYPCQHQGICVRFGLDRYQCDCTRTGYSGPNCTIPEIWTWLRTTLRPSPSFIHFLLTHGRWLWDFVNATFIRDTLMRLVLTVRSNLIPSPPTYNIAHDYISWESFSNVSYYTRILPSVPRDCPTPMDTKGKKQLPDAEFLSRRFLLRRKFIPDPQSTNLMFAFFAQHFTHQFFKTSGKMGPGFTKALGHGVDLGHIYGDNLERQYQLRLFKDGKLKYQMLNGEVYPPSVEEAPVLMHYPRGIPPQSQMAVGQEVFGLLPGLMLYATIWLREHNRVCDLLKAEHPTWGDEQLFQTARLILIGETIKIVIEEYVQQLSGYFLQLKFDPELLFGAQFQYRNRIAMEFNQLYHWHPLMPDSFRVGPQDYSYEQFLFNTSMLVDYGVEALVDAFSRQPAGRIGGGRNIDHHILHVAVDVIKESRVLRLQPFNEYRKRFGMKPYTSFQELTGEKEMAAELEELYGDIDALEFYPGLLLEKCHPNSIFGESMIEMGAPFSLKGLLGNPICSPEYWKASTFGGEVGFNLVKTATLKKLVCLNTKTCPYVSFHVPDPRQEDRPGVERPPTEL
Procedure: The inhibition of COX-1 and -2 by 3-methoxypterostilbene was measured through the use of a three-day commercial assay kit. The assay relied on the quantification of the prostanoid product based on enzyme immunoassay (EIA), which uses a nonspecific antibody for prostaglandins (PGs). The constant concentration of the PG-AChE-tracer and the varying concentrations of the PGs available to bind to the antiserum is inversely proportional to the concentration of free PGs in the well. For this assay, 3-methoxypterostilbene was dissolved in DMSO over the concentration range of 1–250 μg/mL. Ibuprofen and etodolac, COX-2 preferential NSAIDs, were dissolved in DMSO and used as controls over the concentration range of 1–250 μg/mL. Reagents were prepared according to the manufacturer's instructions that accompanied the kit. The ELISA plate for this purpose was read at an absorbance of 415 nm within 10 minutes at room temperature (23 ± 1°C) using the Synergy HT multiwell plate reader and Gen5 data analysis software (Biotek Instruments Inc., Winooski, VT, USA). The assay was performed in quadruplet. For more information regarding the assay protocol, please refer to the instructions for the kit (COX Inhibitor Screening Assay Kit from Cayman Chemical—Cat. no. 560131).

[4] = system: human peripheral blood mononuclear cells; settings: cited from earlier work

SMILES: COc1cc(/C=C/c2ccc(O)c(OC)c2)cc(OC)c1 [3-methoxypterostilbene, trans-3,3′-5-trimethoxy-4′-hydro-xystilbene]
- Apoptotic-inducing activity [1]: greater apoptotic-inducing activity than resveratrol
- Activity in crown-gall plant antitumor (potato disk) assay compared with piceatannol (crown-gall): significantly greater activity
- α-Amylase inhibition (in words) ([2]; 0 to 200 μg/mL, n = 6): relatively weak inhibition of α-amylase
- α-Amylase activity at the highest concentrations tested (in words) ([2]; highest concentrations tested): appears to increase activity of α-amylase
- Modeled antioxidant potency [3]: greater potency than resveratrol
- COX-1 inhibition versus NSAIDs (in words) (COX-1; 250 μg/mL, compared with ibuprofen and etodolac): significantly greater activity (P < 0.05) than the NSAIDs at low doses
- COX-1 inhibitory activity (in words) (COX-1; 1, 10 and 250 μg/mL): positive concentration-dependent inhibitory activity; also recorded: strong COX-1 inhibition comparable to two NSAIDs
- Inhibition of lipopolysaccharide-induced tissue factor expression [4]: as effective as resveratrol
